Data taken from patent publication US6362234B1, “Water-soluble prodrugs of propofol for treatment of migrane” (Vyrex Corporation, priority 2000, dated 2002).
Where a name gives a salt, the structure may show the parent alone.

Key:
[1] = tested on: low density lipoprotein (LDL); test: Hydrogen peroxide/horseradish peroxidase-promoted oxidation of LDL (conjugated dienes); format: biochemical, human; settings: 5 μM compound; 100 μg/ml LDL, 1 U horseradish peroxidase, 50 μM H2O2
From the text: (§1) The following experiment is based on the use of low density lipoprotein (LDL) as an oxidizable substrate. LDL is one of the plasma lipoproteins whose oxidation is thought to contribute to the pathogenesis of atherosclerosis. The copper-promoted, the hydrogen peroxide-/horseradish peroxidase-promoted and the myeloperoxidase-promoted oxidation of LDL are models for the free radical-induced oxidation of LDL that occurs in vivo.
(§2) LDL was isolated from heparinized plasma of normal human donors by ultracentrifugation. Most of the experiments described in this study were performed immediately after isolation. Examples and further details of the experimental procedures may be found in N. Santanam et al J. Clin Invest. 95(6):2594 (1995) and FEBS Letters, 414:549-551 (1997).
(§3) The formation of conjugated dienes was measured in a spectrophotometer (model DB-3500; SLM-AMINCO, Urbana, Ill.) equipped with a 12 position sample changer. Samples and references were measured continuously for periods of up to several hours. Typically, 100 μg/ml of LDL was incubated in PBS with 1 U horseradish peroxidase (type X, 260 U/mg) in the presence of 50 μM H2O2. For copper-mediated oxidation, 100 μg/ml LDL was incubated with 5 μM copper sulfate solution.

[2] = tested on: low density lipoprotein (LDL); test: Copper-promoted oxidation of LDL (conjugated dienes); format: biochemical, human; settings: 5 μM compound; 100 μg/ml LDL, 5 μM copper sulfate
From the text: as §1, §2, §3

[3] = In vivo hydrolysis of propofol hemisuccinate after gavage; settings: rats, two day observation period following the dosing
Experimental: (§4) Propofol hemisuccinate sodium salt in aqueous solution was administered to adult male Sprague-Dawley rats by gavage. Blood was collected at 2, 4, 8 and 24 hours after dosing, and analyzed by HPLC as described in example 3.

[4] = male, Sprague-Dawley, rat, in vivo
Experimental: as §4

`CC(C)c1cccc(C(C)C)c1OC(=O)CCC(=O)O` (as salt: succinate) [propofol hemisuccinate, 2,6-diisopropylphenyl hydrogen succinate] gave a melting point of 101 to 102 °C.
For “mono(propofol) phosphate disodium salt [(mono)propofol phosphate]”, the “Effect on oxidation of LDL in the presence of horseradish peroxidase/hydrogen peroxide” value [1] was “not significantly affected” and the “Effect on copper-promoted oxidation of LDL” value [2] was “not significantly affected”.
In the case of `CC(C)c1cccc(C(C)C)c1OC(=O)CCC(=O)O` [propofol hemisuccinate, 2,6-diisopropylphenyl hydrogen succinate], the “Condition of the animals after dosing” value [3] is reported as “All the animals remained healthy and active” and the “Time of peak blood levels of propofol after dosing” value [4] is reported as 2 to 4 h.
